Assay results taken from US8192962B2, “Processes for detecting toxic substances” (Daikin Industries, Ltd., priority 2001, dated 2012).

Tested on: Detoxification protein genes
Test: DNA chip mRNA expression in yeast, detoxification protein genes (Table 8)
Format: cell-based, Saccharomyces cerevisiae S288C
Summary of the method: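 Untreated cultures served as reference for log-phase S288C yeast given a growth-inhibiting, non-lethal toxicant dose for 2 h at 25° C. in YPD. Gene expression was measured on a whole-genome DNA chip from Cy3/Cy5-labeled cDNA.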

## Oc1cc(Cl)c(Cl)cc1Cl [(6), 2,4,5-trichlorophenol]
Yeast gene YBL064C
  The level of expressed mRNA in the presence of chemical substance/The level of expressed mRNA in the absence of chemical substance: 5.2
Yeast gene YBR008C
  The level of expressed mRNA in the presence of chemical substance/The level of expressed mRNA in the absence of chemical substance: 1.0
Yeast gene YBR145W
  The level of expressed mRNA in the presence of chemical substance/The level of expressed mRNA in the absence of chemical substance: 11.5
Yeast gene YBR244W
  The level of expressed mRNA in the presence of chemical substance/The level of expressed mRNA in the absence of chemical substance: 1.0
Yeast gene YBR293W
  The level of expressed mRNA in the presence of chemical substance/The level of expressed mRNA in the absence of chemical substance: 0.9
Yeast gene YCL035C
  The level of expressed mRNA in the presence of chemical substance/The level of expressed mRNA in the absence of chemical substance: 5.1
Yeast gene YCR083W
  The level of expressed mRNA in the presence of chemical substance/The level of expressed mRNA in the absence of chemical substance: 2.4
Yeast gene YDL100C
  The level of expressed mRNA in the presence of chemical substance/The level of expressed mRNA in the absence of chemical substance: 2.1
Yeast gene YDL168W
  The level of expressed mRNA in the presence of chemical substance/The level of expressed mRNA in the absence of chemical substance: 1.4
Yeast gene YDR256C
  The level of expressed mRNA in the presence of chemical substance/The level of expressed mRNA in the absence of chemical substance: 0.5
Yeast gene YDR453C
  The level of expressed mRNA in the presence of chemical substance/The level of expressed mRNA in the absence of chemical substance: 1.7
Yeast gene YDR513W
  The level of expressed mRNA in the presence of chemical substance/The level of expressed mRNA in the absence of chemical substance: 2.1
Yeast gene YDR538W
  The level of expressed mRNA in the presence of chemical substance/The level of expressed mRNA in the absence of chemical substance: 1.0
Yeast gene YEL027W
  The level of expressed mRNA in the presence of chemical substance/The level of expressed mRNA in the absence of chemical substance: 1.1
Yeast gene YEL065W
  The level of expressed mRNA in the presence of chemical substance/The level of expressed mRNA in the absence of chemical substance: 2.3
Yeast gene YER185W
  The level of expressed mRNA in the presence of chemical substance/The level of expressed mRNA in the absence of chemical substance: 1.2
Yeast gene YFL050C
  The level of expressed mRNA in the presence of chemical substance/The level of expressed mRNA in the absence of chemical substance: 0.9
Yeast gene YGL013C
  The level of expressed mRNA in the presence of chemical substance/The level of expressed mRNA in the absence of chemical substance: 2.3
Yeast gene YGL254W
  The level of expressed mRNA in the presence of chemical substance/The level of expressed mRNA in the absence of chemical substance: 0.7
Yeast gene YGR088W
  The level of expressed mRNA in the presence of chemical substance/The level of expressed mRNA in the absence of chemical substance: 1.3
Yeast gene YGR138C
  The level of expressed mRNA in the presence of chemical substance/The level of expressed mRNA in the absence of chemical substance: 0.8
Yeast gene YGR197C
  The level of expressed mRNA in the presence of chemical substance/The level of expressed mRNA in the absence of chemical substance: 0.5
Yeast gene YGR209C
  The level of expressed mRNA in the presence of chemical substance/The level of expressed mRNA in the absence of chemical substance: 1.9
Yeast gene YGR224W
  The level of expressed mRNA in the presence of chemical substance/The level of expressed mRNA in the absence of chemical substance: 0.8
Yeast gene YHL040C
  The level of expressed mRNA in the presence of chemical substance/The level of expressed mRNA in the absence of chemical substance: 7.3
Yeast gene YHL047C
  The level of expressed mRNA in the presence of chemical substance/The level of expressed mRNA in the absence of chemical substance: 8.4
Yeast gene YHR008C
  The level of expressed mRNA in the presence of chemical substance/The level of expressed mRNA in the absence of chemical substance: 1.0
Yeast gene YHR048W
  The level of expressed mRNA in the presence of chemical substance/The level of expressed mRNA in the absence of chemical substance: 0.8
Yeast gene YHR053C
  The level of expressed mRNA in the presence of chemical substance/The level of expressed mRNA in the absence of chemical substance: 1.3
Yeast gene YHR055C
  The level of expressed mRNA in the presence of chemical substance/The level of expressed mRNA in the absence of chemical substance: 1.6
Yeast gene YIR002C
  The level of expressed mRNA in the presence of chemical substance/The level of expressed mRNA in the absence of chemical substance: 2.2
Yeast gene YIR038C
  The level of expressed mRNA in the presence of chemical substance/The level of expressed mRNA in the absence of chemical substance: 2.5
Yeast gene YJL101C
  The level of expressed mRNA in the presence of chemical substance/The level of expressed mRNA in the absence of chemical substance: 1.0
Yeast gene YJR104C
  The level of expressed mRNA in the presence of chemical substance/The level of expressed mRNA in the absence of chemical substance: 1.4
Yeast gene YKL026C
  The level of expressed mRNA in the presence of chemical substance/The level of expressed mRNA in the absence of chemical substance: 1.8
Yeast gene YKL064W
  The level of expressed mRNA in the presence of chemical substance/The level of expressed mRNA in the absence of chemical substance: 1.5
Yeast gene YKR066C
  The level of expressed mRNA in the presence of chemical substance/The level of expressed mRNA in the absence of chemical substance: 0.9
Yeast gene YKR105C
  The level of expressed mRNA in the presence of chemical substance/The level of expressed mRNA in the absence of chemical substance: 1.2
Yeast gene YKR106W
  The level of expressed mRNA in the presence of chemical substance/The level of expressed mRNA in the absence of chemical substance: 1.6
Yeast gene YLL028W
  The level of expressed mRNA in the presence of chemical substance/The level of expressed mRNA in the absence of chemical substance: 1.7
Yeast gene YLL057C
  The level of expressed mRNA in the presence of chemical substance/The level of expressed mRNA in the absence of chemical substance: 1.0
Yeast gene YLL060C
  The level of expressed mRNA in the presence of chemical substance/The level of expressed mRNA in the absence of chemical substance: 1.4
Yeast gene YLR043C
  The level of expressed mRNA in the presence of chemical substance/The level of expressed mRNA in the absence of chemical substance: 1.4
Yeast gene YLR046C
  The level of expressed mRNA in the presence of chemical substance/The level of expressed mRNA in the absence of chemical substance: 3.8
Yeast gene YML028W
  The level of expressed mRNA in the presence of chemical substance/The level of expressed mRNA in the absence of chemical substance: 1.2
Yeast gene YML116W
  The level of expressed mRNA in the presence of chemical substance/The level of expressed mRNA in the absence of chemical substance: 0.9
Yeast gene YMR015C
  The level of expressed mRNA in the presence of chemical substance/The level of expressed mRNA in the absence of chemical substance: 1.3
Yeast gene YMR038C
  The level of expressed mRNA in the presence of chemical substance/The level of expressed mRNA in the absence of chemical substance: 1.0
Yeast gene YNL239W
  The level of expressed mRNA in the presence of chemical substance/The level of expressed mRNA in the absence of chemical substance: 1.8
Yeast gene YNL241C
  The level of expressed mRNA in the presence of chemical substance/The level of expressed mRNA in the absence of chemical substance: 0.9
Yeast gene YNL259C
  The level of expressed mRNA in the presence of chemical substance/The level of expressed mRNA in the absence of chemical substance: 3.9
Yeast gene YOL158C
  The level of expressed mRNA in the presence of chemical substance/The level of expressed mRNA in the absence of chemical substance: 2.0
Yeast gene YOR031W
  The level of expressed mRNA in the presence of chemical substance/The level of expressed mRNA in the absence of chemical substance: 0.9
Yeast gene YOR153W
  The level of expressed mRNA in the presence of chemical substance/The level of expressed mRNA in the absence of chemical substance: 7.4
Yeast gene YOR247W
  The level of expressed mRNA in the presence of chemical substance/The level of expressed mRNA in the absence of chemical substance: 0.2
Yeast gene YOR251C
  The level of expressed mRNA in the presence of chemical substance/The level of expressed mRNA in the absence of chemical substance: 0.9
Yeast gene YOR273C
  The level of expressed mRNA in the presence of chemical substance/The level of expressed mRNA in the absence of chemical substance: 0.4
Yeast gene YPL163C
  The level of expressed mRNA in the presence of chemical substance/The level of expressed mRNA in the absence of chemical substance: 0.6
Yeast gene YPR200C
  The level of expressed mRNA in the presence of chemical substance/The level of expressed mRNA in the absence of chemical substance: 0.8
